Here are results for 20 compounds from ChEMBL document CHEMBL3994607, “Synthesis of new sarsasapogenin derivatives with cytotoxicity and apoptosis-inducing activities in human breast cancer MCF-7 cells” (Eur J Med Chem, 2017).

Assay [1] deals with HepG2. In words: Cytotoxicity against human HepG2 cells assessed as decrease in cell proliferation after 48 hrs by MTT colorimetric assay. The class given is functional, cell-based. The note with it: HepG2, 48 h.
Another assay deals with Hep 3B2. Nature of the assay: Cytotoxicity against human Hep3B cells assessed as decrease in cell proliferation after 48 hrs by MTT colorimetric assay. It counts as functional, cell-based.
In the next assay the test system is Bcap37. Nature of the assay: Cytotoxicity against human Bcap37 cells assessed as decrease in cell proliferation after 48 hrs by MTT colorimetric assay. It counts as functional, cell-based. To be noted: Bcap37, 48 h.
The test system of a further assay is MCF7. Nature of the assay: Cytotoxicity against human MCF7 cells assessed as decrease in cell proliferation after 48 hrs by MTT colorimetric assay. It counts as functional, cell-based. The note with it: Homo sapiens, MCF7, 48 h.
For a further assay, the system named is U-251. Nature of the assay: Cytotoxicity against human U251 cells assessed as decrease in cell proliferation after 48 hrs by MTT colorimetric assay. To be noted: U-251, 48 h. The class given is functional, cell-based.
Assay [2] relates to A549. Nature of the assay: Cytotoxicity against human A549 cells assessed as decrease in cell proliferation after 48 hrs by MTT colorimetric assay. It counts as functional, cell-based. To be noted: A549, 48 h.
In assay [3] the test system is A549. In words: Potency index, ratio of sarsasapogenin IC50 to test compound IC50 for human A549 cells. It counts as functional.
The subject of assay [4] is HepG2. Nature of the assay: Potency index, ratio of sarsasapogenin IC50 to test compound IC50 for human HepG2 cells. The class given is functional.

Regarding `C[C@@H](CC[C@H]1O[C@H]2C[C@H]3[C@@H]4CC[C@@H]5C[C@@H](OCc6ccc(F)cc6)CC[C@]5(C)[C@H]4CC[C@]3(C)[C@H]2[C@@H]1C)CN(C)C`, the half-maximal inhibitory concentration (IC50) in the assay with HepG2 [1] is 27.2 µM; in the assay with Hep 3B2, above 100 µM; in the assay with Bcap37, above 100 µM; in the assay with MCF7 it was 17.9 µM; with U-251, 14.1 µM; in the assay on A549 [2] it was 4.02 µM. Further, the “Ratio IC50” value with A549 [3] is given as 9.5.
As to `CCN(CC)C[C@@H](C)CC[C@H]1O[C@H]2C[C@H]3[C@@H]4CC[C@@H]5C[C@@H](OCc6ccccc6)CC[C@]5(C)[C@H]4CC[C@]3(C)[C@H]2[C@@H]1C`, the IC50 was 44 µM with HepG2 [1]; 28.2 µM in the assay on Hep 3B2; above 100 µM in the assay on Bcap37; 93 µM in the assay with MCF7; above 100 µM with U-251; 67.2 µM with A549 [2].
For the compound `CCN(CC)C[C@@H](C)CC[C@H]1O[C@H]2C[C@H]3[C@@H]4CC[C@@H]5C[C@@H](OCc6ccc(F)cc6)CC[C@]5(C)[C@H]4CC[C@]3(C)[C@H]2[C@@H]1C`, the half-maximal inhibitory concentration (IC50) was 26.4 µM in the assay on HepG2 [1]; above 100 µM in the assay on Hep 3B2; above 100 µM in the assay on Bcap37; 45.2 µM with MCF7; above 100 µM in the assay on U-251; 18 µM in the assay with A549 [2].
On to `C[C@@H](CC[C@H]1O[C@H]2C[C@H]3[C@@H]4CC[C@@H]5C[C@@H](OCc6ccccc6)CC[C@]5(C)[C@H]4CC[C@]3(C)[C@H]2[C@@H]1C)CN(C)C`, for which the IC50 was 42.7 µM with HepG2 [1]; 28.3 µM in the assay with Hep 3B2; above 100 µM with Bcap37; above 100 µM with MCF7; above 100 µM with U-251; 91.3 µM in the assay on A549 [2].
With `COc1ccc(CO[C@H]2CC[C@@]3(C)[C@H](CC[C@@H]4[C@@H]3CC[C@]3(C)[C@H]5[C@H](C)[C@@H](CC[C@H](C)CN(C)C)O[C@H]5C[C@@H]43)C2)cc1`, the IC50 in the assay with HepG2 [1] was 79.5 µM; in the assay on Hep 3B2 it was 23.4 µM; with Bcap37 it was above 100 µM; in the assay with MCF7, above 100 µM; in the assay on U-251 it was above 100 µM; with A549 [2], above 100 µM.
`CCN(CC)C[C@@H](C)CC[C@H]1O[C@H]2C[C@H]3[C@@H]4CC[C@@H]5C[C@@H](OCc6ccc(OC)cc6)CC[C@]5(C)[C@H]4CC[C@]3(C)[C@H]2[C@@H]1C`: the concentration for half-maximal inhibition (IC50) in the assay with HepG2 [1] was 13.9 µM; in the assay on Hep 3B2, above 100 µM; in the assay on Bcap37 it was 14.7 µM; in the assay with MCF7 it was 4.83 µM; in the assay with U-251, 12.9 µM; with A549 [2] it was 14.3 µM.
On to `C[C@@H](CC[C@H]1O[C@H]2C[C@H]3[C@@H]4CC[C@@H]5C[C@@H](OCc6ccc(F)cc6)CC[C@]5(C)[C@H]4CC[C@]3(C)[C@H]2[C@@H]1C)CN1CCN(C)CC1`, for which the 50% inhibitory concentration (IC50) is 35.6 µM with HepG2 [1]; above 100 µM in the assay with Hep 3B2; above 100 µM in the assay with Bcap37; 44.1 µM in the assay with MCF7; above 100 µM in the assay on U-251; 13.9 µM with A549 [2].
For `CO[C@H]1CC[C@@]2(C)[C@H](CC[C@@H]3[C@@H]2CC[C@]2(C)[C@H]4[C@H](C)[C@@H](CC[C@@H](C)CN5CCNCC5)O[C@H]4C[C@@H]32)C1`, the IC50 in the assay on HepG2 [1] was determined as 35.5 µM.
With `C[C@H](CO)CC[C@H]1O[C@H]2C[C@H]3[C@@H]4CC[C@@H]5C[C@@H](OCc6ccccc6)CC[C@]5(C)[C@H]4CC[C@]3(C)[C@H]2[C@@H]1C`, the IC50 is 14.5 µM in the assay with HepG2 [1]; 10.1 µM in the assay on Hep 3B2; 25 µM with Bcap37; 22.1 µM with MCF7; 19.8 µM with U-251; 34.4 µM in the assay with A549 [2].
In the case of `C[C@H](CO)CC[C@H]1O[C@H]2C[C@H]3[C@@H]4CC[C@@H]5C[C@@H](OCc6ccc(F)cc6)CC[C@]5(C)[C@H]4CC[C@]3(C)[C@H]2[C@@H]1C`, the IC50 worked out at 14.5 µM in the assay with HepG2 [1]; 11.7 µM with Hep 3B2; 97.3 µM with Bcap37; 44.1 µM in the assay with MCF7; 38.8 µM in the assay on U-251; 25.1 µM in the assay with A549 [2].
On to `C[C@@H](CC[C@H]1O[C@H]2C[C@H]3[C@@H]4CC[C@@H]5C[C@@H](OCc6ccccc6)CC[C@]5(C)[C@H]4CC[C@]3(C)[C@H]2[C@@H]1C)CN1CCCC1`, for which the IC50 turned out to be 30.4 µM in the assay with HepG2 [1]; 26.8 µM in the assay on Hep 3B2; 36 µM in the assay on Bcap37; 37.6 µM in the assay on MCF7; 23.6 µM with U-251; 27.1 µM with A549 [2].
For `COc1ccc(CO[C@H]2CC[C@@]3(C)[C@H](CC[C@@H]4[C@@H]3CC[C@]3(C)[C@H]5[C@H](C)[C@@H](CC[C@H](C)CN6CCN(C)CC6)O[C@H]5C[C@@H]43)C2)cc1`, the 50% inhibitory concentration (IC50) with HepG2 [1] was 21.4 µM; in the assay with Hep 3B2, above 100 µM; with Bcap37, 9.12 µM; in the assay with MCF7 it was 3.74 µM; in the assay on U-251, 8.37 µM; in the assay on A549 [2] it was 6.78 µM.
Turning to `COc1ccc(CO[C@H]2CC[C@@]3(C)[C@H](CC[C@@H]4[C@@H]3CC[C@]3(C)[C@H]5[C@H](C)[C@@H](CC[C@H](C)CN6CCCC6)O[C@H]5C[C@@H]43)C2)cc1`, the half-inhibitory concentration (IC50) in the assay on HepG2 [1] is above 100 µM; with Hep 3B2 it was 69.9 µM; with Bcap37, above 100 µM; with MCF7, above 100 µM; in the assay on U-251, above 100 µM; in the assay with A549 [2], above 100 µM.
On to `CO[C@H]1CC[C@@]2(C)[C@H](CC[C@@H]3[C@@H]2CC[C@]2(C)[C@H]4[C@H](C)[C@@H](CC[C@@H](C)CN5CCCC5)O[C@H]4C[C@@H]32)C1`, for which the half-inhibitory concentration (IC50) in the assay with HepG2 [1] came to 4.24 µM.
In the case of `O=c1[nH]cc(F)c(=O)[nH]1` [FLUOROURACIL], the concentration for half-maximal inhibition (IC50) in the assay on HepG2 [1] is 10.2 µM; with U-251, 48.7 µM.
Turning to `C[C@@H](CC[C@H]1O[C@H]2C[C@H]3[C@@H]4CC[C@@H]5C[C@@H](OCc6ccc(F)cc6)CC[C@]5(C)[C@H]4CC[C@]3(C)[C@H]2[C@@H]1C)CN1CCCC1`, the IC50 in the assay with HepG2 [1] worked out at 4.38 µM; in the assay with Hep 3B2 it was 12.9 µM; in the assay with Bcap37, 9.68 µM; with MCF7, 5.13 µM; in the assay on U-251, 7.1 µM; with A549 [2] it was 8.98 µM. Further, the “Ratio IC50” value in the assay with HepG2 [4] amounted to 9.2.
Take `C[C@@H](CC[C@H]1O[C@H]2C[C@H]3[C@@H]4CC[C@@H]5C[C@@H](OCc6ccc(F)cc6)CC[C@]5(C)[C@H]4CC[C@]3(C)[C@H]2[C@@H]1C)CN1CCNCC1`: the concentration for half-maximal inhibition (IC50) was 8.61 µM in the assay on HepG2 [1]; 16.8 µM with Hep 3B2; 15.6 µM with Bcap37; 16.7 µM with MCF7; 31.3 µM in the assay on U-251; 14.3 µM in the assay on A549 [2]. Further, the “Ratio IC50” value with HepG2 [4] turned out to be 4.7.
For `C[C@H]1CC[C@@]2(OC1)O[C@H]1C[C@H]3[C@@H]4CC[C@@H]5C[C@@H](O)CC[C@]5(C)[C@H]4CC[C@]3(C)[C@H]1[C@@H]2C` [SARSASAPOGENIN], the IC50 was 40.3 µM in the assay on HepG2 [1]; above 100 µM with Hep 3B2; above 100 µM in the assay with Bcap37; 49.2 µM in the assay with MCF7; above 100 µM in the assay with U-251; 38.1 µM with A549 [2].
With `C[C@@H](CC[C@H]1O[C@H]2C[C@H]3[C@@H]4CC[C@@H]5C[C@@H](OCc6ccccc6)CC[C@]5(C)[C@H]4CC[C@]3(C)[C@H]2[C@@H]1C)CN1CCNCC1`, the IC50 in the assay with HepG2 [1], with Hep 3B2, in the assay with Bcap37, in the assay with MCF7, with U-251 and with A549 [2] was above 100 µM throughout.
Take `C[C@@H](CC[C@H]1O[C@H]2C[C@H]3[C@@H]4CC[C@@H]5C[C@@H](OCc6ccccc6)CC[C@]5(C)[C@H]4CC[C@]3(C)[C@H]2[C@@H]1C)CN1CCN(C)CC1`: the IC50 in the assay on HepG2 [1] was 52.3 µM; in the assay with Hep 3B2, 70.8 µM; with Bcap37, above 100 µM; in the assay with MCF7 it was above 100 µM; in the assay on U-251, above 100 µM; in the assay on A549 [2] it was above 100 µM.
